Assay results from ChEMBL document CHEMBL1201862, “PubChem BioAssay data set” (2004).
Blank lines part the entries; values can stand above or below the compound they belong to. Active and inactive are the calls of the source.

What was measured:
[1] = Luminescence-based counterscreen assay for KLF5 inhibitors: dose response cell-based high throughput screening assay to identify cytotoxic compounds using the IEC-6 intestinal epithelial cell line. [Related pubchem assays: 1700 (Primary screen.), 1834 (Confirmation screen.), 1858 (Summary AID.), 1905 (Counterscreen.)]; assay type: functional
[2] = HepG2 cell cytotoxicity, dose response, cytotoxicity control for Shn3 inhibitor project, CellTiter-Glo, cherry-picked (AID 624134); assay type: functional, cell-based
[3] = control 3'UTR Renilla luciferase suppression, dose response, counter-screen for Shn3 inhibitor project, cell-based, Clone20-Shn3RL, cherry-picked (AID 624133); assay type: functional
Protein Wnt-3a = Protein Wnt-3a (Mus musculus, UniProt P27467); assay: Wnt3a-driven reporter signaling inhibition, dose response, selectivity assay for Gli-SUFU antagonist project, Wnt-LIGHT cells, luminescence (AID 651570); assay type: functional; conditions: read-out: IC50_Mean;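 note: Wnt-LIGHT reporter cells stimulated with conditioned medium from Wnt3a-producing cells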
[4] = target: T1, COUP transcription factor 2 (Homo sapiens, UniProt P24468); assay: Luminescence-based cell-based high throughput dose response assay to identify inhibitors of COUP-TFII (NR2F2).; assay type: functional;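 note: HEK293 cells transiently cotransfected with COUP-TFII expression vector and reporter; luciferase reporter luminescence driven by COUP-TFII from the pX2-168 reporter plasmid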
T1 sequence (P24468 whole entry): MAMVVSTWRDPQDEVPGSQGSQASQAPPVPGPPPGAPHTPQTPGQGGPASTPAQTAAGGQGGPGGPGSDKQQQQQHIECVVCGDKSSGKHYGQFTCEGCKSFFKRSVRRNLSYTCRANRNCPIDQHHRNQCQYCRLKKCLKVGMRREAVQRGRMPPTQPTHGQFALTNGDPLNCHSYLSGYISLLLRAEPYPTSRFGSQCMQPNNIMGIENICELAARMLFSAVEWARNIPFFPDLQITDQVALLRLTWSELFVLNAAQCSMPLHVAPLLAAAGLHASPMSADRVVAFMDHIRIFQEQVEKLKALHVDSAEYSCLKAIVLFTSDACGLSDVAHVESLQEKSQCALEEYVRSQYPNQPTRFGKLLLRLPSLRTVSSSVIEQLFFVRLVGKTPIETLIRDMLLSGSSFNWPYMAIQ

Bcl-2-like protein 10 = target: T2, Bcl-2-like protein 10 (Homo sapiens, UniProt Q9HD36); assay: displacers of TR3 peptide from Bcl-B, primary screen, selectivity assay for Bfl-1 inhibitor project, biochemical, fluorescence polarization, FITC-TR3 peptide (AID 748);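 note: fluorescence polarization from a fluorescein-labelled TR3 peptide binding purified Bcl-B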
T2 sequence (Q9HD36 whole entry): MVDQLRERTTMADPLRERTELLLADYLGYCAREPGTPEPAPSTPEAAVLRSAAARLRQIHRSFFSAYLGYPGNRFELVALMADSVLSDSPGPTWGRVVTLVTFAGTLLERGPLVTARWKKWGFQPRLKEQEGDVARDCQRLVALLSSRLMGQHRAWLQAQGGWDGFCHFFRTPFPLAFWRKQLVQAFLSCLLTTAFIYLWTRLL

[5] = target: T3, E3 ubiquitin-protein ligase XIAP (Homo sapiens, UniProt P98170); assay: Counter Screen using XIAP-Bir3 for Chemical Antagonists of Bir1/2 domains of IAP-family anti-apoptotic proteins. [Related pubchem assays (depositor defined):AID1018, AID1449, AID1514, AID1638, AID1749, AID1750, AID488957, AID488963]
[6] = target: T3, E3 ubiquitin-protein ligase XIAP; assay: XIAP antagonists, biochemical, IAP family, fluorescence polarization (AID 1018); assay type: functional
Beta-galactosidase = Beta-galactosidase (Escherichia coli, UniProt Q8VNN2); assay: Dose response counterscreen for EBI2 assay utilizing the enzyme, b-galactosidase.; assay type: functional
[7] = NIH-3T3 fibroblast cytotoxicity, dose response, cytotoxicity control, cell-based, fluorescence, Alamar Blue, secondary assay (AID 2327); assay type: functional;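 note: NIH-3T3 mouse fibroblasts cultured with fluconazole at 8 µg/mL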
[8] = C. albicans growth with fluconazole, confirmation, fluorescence, retest (AID 2467); assay type: functional, cell-based
[9] = growth suppression of PTEN-null colon cells, dose response, cell-based, HCT116 PTEN knockout (AID 1047); assay type: functional;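 note: HCT116 colon tumor cells with PTEN knocked out; cells exposed to compound for 60 hours before readout; potency for loss of cell viability measured by luminescence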
[10] = growth suppression of beta-catenin-knockout colon cells, dose response, cell-based, HCT116, human colon tumor (AID 1045); assay type: functional;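 note: HCT116 colon tumor cells with beta catenin knocked out; cells exposed to compound for 60 hours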
Trypsin = Trypsin (Sus scrofa, UniProt P00761); assay: porcine trypsin inhibitors, dose response, selectivity assay for Rce1 protease inhibitor project, biochemical, quenched peptide fluorescence, cherry-pick (AID 488789)
[11] = target: Glyceraldehyde-3-phosphate dehydrogenase (Homo sapiens, UniProt P04406)
[12] = target: T4, Voltage-gated N-type calcium channel alpha-1B subunit/Amyloid beta A4 precursor protein-binding family A member 1 (Homo sapiens, UniProt Q00975+Q02410); assay type: protein assay
Large T antigen = Large T antigen (Simian virus 40, UniProt P03070); assay type: functional, Betapolyomavirus macacae;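 note: Confirmatory-stage PubChem screen for compounds that inhibit SV40 T antigen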
[13] = target: T4, Voltage-gated N-type calcium channel alpha-1B subunit/Amyloid beta A4 precursor protein-binding family A member 1; assay type: protein assay; remark: listed apart in the source
[14] = inhibitors of intracellular T. cruzi replication, confirmation, NIH3T3 host cells, beta-gal luminescence (AID 2044); assay type: functional, cell-based;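 note: intracellular parasites grown in NIH/3T3 mouse fibroblasts as host cells; luminescent beta-galactosidase reporter signal from transgenic T. cruzi replicating inside host cells; inhibitors lower the luminescence signal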
[15] = cytotoxicity toward NIH3T3 fibroblasts, dose response, counter-screen, cell-based, ATP luminescence, mouse fibroblasts (AID 2010); assay type: functional;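 note: cells exposed to compound for about 90 hours before reading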
[16] = target: Heat shock protein HSP 90-alpha (Homo sapiens, UniProt P07900); assay type: functional, organism-based
[17] = Shn3 3'UTR reporter inhibitors, dose response, cell-based, Clone20 osteoblasts, firefly luciferase, cherry-picked (AID 624132); assay type: functional;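 note: firefly luciferase luminescence from reporter carrying the Shn3 3'UTR in osteoblasts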
[18] = target: DNA dC->dU-editing enzyme APOBEC-3A (Homo sapiens, UniProt P31941); assay: Dose Response confirmation of small molecule APOBEC3A DNA Deaminase Inhibitors via a fluorescence-based single-stranded DNA deaminase assay. [Related pubchem assays (depositor defined):AID493011, AID493024]; assay type: functional
[19] = target: DNA dC->dU-editing enzyme APOBEC-3G (Homo sapiens, UniProt Q9HC16); assay type: functional;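 note: Dose-response counterscreen measuring inhibition of APOBEC3G DNA deaminase activity, run while confirming APOBEC3A inhibitors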
Caspase-6 = target: T5, Caspase-6 (Homo sapiens, UniProt P55212); assay: human caspase-6 inhibitors, dose response, biochemical, VEID-R110 fluorescence, cherry-pick (AID 720632)
T5 sequence (P55212 whole entry): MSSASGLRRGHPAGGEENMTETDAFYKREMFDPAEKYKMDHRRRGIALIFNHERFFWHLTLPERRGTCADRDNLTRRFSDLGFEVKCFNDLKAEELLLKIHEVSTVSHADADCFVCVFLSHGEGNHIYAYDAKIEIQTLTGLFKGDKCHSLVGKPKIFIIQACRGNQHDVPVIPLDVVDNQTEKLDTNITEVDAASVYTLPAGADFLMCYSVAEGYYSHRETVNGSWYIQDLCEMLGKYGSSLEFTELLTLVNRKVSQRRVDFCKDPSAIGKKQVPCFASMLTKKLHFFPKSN

T3 sequence (P98170 whole entry): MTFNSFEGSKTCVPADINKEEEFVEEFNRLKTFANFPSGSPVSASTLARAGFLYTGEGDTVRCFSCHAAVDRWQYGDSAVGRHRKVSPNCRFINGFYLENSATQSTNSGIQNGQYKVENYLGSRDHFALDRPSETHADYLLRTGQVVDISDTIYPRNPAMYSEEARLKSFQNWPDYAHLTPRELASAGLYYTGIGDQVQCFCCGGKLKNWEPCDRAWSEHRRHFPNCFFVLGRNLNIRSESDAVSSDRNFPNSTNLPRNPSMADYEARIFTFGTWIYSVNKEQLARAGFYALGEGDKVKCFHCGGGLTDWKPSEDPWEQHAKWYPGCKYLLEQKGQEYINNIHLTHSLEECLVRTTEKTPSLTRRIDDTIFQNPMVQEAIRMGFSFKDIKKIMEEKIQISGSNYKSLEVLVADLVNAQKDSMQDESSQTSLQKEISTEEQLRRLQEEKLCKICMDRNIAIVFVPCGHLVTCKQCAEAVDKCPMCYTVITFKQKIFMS
T4 sequence (Q00975 whole entry): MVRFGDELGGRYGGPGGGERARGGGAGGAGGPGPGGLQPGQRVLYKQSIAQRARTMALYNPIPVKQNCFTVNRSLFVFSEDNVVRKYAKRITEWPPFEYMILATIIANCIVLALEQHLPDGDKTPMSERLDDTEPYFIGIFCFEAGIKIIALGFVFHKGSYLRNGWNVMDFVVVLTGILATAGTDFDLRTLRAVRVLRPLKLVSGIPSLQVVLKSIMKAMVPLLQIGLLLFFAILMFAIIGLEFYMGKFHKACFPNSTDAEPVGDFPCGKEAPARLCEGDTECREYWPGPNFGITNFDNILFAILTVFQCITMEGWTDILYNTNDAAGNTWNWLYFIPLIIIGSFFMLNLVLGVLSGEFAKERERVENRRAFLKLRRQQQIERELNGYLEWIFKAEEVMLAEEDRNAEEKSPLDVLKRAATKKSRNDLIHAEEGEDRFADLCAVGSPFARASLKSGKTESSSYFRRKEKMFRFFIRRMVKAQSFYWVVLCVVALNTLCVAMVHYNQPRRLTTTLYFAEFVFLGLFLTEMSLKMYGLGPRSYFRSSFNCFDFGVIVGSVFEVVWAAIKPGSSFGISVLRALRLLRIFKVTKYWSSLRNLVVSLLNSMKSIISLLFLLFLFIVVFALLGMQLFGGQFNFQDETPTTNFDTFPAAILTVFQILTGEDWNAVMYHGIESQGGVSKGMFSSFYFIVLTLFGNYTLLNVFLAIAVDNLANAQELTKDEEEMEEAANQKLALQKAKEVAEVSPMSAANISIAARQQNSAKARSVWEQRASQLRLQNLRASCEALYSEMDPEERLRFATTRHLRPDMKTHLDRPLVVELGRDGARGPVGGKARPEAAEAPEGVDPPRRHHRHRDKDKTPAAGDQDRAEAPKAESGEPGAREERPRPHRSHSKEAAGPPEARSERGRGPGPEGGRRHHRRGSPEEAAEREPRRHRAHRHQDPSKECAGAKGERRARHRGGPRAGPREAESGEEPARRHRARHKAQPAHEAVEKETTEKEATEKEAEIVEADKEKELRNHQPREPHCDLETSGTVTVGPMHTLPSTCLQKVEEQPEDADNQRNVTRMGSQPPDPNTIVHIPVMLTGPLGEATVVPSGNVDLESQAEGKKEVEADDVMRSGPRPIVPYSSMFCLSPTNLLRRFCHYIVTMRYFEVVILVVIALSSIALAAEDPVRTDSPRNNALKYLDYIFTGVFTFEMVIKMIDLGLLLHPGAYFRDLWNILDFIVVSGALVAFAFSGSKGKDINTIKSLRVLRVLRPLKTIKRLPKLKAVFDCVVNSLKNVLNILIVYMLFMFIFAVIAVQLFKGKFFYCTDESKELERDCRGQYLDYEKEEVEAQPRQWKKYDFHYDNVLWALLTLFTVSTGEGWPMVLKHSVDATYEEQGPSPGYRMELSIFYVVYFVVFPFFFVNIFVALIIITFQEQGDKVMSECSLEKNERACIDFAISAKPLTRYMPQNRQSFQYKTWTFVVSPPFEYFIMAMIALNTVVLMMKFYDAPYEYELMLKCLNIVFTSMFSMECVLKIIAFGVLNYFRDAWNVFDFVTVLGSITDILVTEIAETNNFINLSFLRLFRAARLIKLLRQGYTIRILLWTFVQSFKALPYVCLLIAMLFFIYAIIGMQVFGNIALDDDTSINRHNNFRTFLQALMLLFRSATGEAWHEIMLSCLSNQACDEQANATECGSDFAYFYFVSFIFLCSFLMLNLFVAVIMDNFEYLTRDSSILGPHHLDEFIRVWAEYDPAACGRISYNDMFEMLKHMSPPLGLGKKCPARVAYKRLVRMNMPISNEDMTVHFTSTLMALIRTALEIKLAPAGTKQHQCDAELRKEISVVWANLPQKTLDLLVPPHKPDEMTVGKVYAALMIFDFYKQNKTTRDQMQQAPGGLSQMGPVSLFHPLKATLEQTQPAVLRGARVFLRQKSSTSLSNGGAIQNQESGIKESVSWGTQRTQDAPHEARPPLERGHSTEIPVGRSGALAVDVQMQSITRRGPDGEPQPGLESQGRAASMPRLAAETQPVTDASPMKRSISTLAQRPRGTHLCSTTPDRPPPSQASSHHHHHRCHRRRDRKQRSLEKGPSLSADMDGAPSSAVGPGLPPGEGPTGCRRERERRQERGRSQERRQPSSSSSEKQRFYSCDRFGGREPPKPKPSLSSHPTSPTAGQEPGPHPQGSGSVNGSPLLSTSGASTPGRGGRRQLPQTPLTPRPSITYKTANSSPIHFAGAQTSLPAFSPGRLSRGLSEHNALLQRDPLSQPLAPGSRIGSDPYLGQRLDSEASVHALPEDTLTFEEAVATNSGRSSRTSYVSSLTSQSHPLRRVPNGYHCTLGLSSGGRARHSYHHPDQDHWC
T4 sequence (Q02410 whole entry): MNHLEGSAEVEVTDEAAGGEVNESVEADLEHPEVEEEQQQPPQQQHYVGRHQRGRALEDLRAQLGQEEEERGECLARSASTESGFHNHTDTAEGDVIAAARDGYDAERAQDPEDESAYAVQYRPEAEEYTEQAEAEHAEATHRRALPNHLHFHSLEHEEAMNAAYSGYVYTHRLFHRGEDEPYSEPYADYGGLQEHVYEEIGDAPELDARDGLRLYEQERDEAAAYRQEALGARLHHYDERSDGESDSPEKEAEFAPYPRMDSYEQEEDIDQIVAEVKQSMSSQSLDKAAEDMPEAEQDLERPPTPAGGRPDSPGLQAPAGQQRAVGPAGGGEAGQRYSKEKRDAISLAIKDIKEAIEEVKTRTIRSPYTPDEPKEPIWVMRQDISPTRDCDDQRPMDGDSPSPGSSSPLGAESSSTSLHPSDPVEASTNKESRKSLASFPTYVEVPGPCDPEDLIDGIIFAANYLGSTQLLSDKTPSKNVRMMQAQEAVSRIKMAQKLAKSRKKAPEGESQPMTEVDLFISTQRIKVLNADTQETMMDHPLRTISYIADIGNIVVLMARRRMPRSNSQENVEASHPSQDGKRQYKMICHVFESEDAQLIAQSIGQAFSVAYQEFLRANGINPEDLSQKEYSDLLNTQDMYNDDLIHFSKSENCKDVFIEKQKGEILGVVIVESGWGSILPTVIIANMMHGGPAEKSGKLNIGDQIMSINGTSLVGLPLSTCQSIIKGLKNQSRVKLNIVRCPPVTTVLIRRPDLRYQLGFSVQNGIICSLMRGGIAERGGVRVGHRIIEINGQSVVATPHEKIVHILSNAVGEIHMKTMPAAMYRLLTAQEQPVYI
Beta-galactosidase, sequence (Q8VNN2 whole entry): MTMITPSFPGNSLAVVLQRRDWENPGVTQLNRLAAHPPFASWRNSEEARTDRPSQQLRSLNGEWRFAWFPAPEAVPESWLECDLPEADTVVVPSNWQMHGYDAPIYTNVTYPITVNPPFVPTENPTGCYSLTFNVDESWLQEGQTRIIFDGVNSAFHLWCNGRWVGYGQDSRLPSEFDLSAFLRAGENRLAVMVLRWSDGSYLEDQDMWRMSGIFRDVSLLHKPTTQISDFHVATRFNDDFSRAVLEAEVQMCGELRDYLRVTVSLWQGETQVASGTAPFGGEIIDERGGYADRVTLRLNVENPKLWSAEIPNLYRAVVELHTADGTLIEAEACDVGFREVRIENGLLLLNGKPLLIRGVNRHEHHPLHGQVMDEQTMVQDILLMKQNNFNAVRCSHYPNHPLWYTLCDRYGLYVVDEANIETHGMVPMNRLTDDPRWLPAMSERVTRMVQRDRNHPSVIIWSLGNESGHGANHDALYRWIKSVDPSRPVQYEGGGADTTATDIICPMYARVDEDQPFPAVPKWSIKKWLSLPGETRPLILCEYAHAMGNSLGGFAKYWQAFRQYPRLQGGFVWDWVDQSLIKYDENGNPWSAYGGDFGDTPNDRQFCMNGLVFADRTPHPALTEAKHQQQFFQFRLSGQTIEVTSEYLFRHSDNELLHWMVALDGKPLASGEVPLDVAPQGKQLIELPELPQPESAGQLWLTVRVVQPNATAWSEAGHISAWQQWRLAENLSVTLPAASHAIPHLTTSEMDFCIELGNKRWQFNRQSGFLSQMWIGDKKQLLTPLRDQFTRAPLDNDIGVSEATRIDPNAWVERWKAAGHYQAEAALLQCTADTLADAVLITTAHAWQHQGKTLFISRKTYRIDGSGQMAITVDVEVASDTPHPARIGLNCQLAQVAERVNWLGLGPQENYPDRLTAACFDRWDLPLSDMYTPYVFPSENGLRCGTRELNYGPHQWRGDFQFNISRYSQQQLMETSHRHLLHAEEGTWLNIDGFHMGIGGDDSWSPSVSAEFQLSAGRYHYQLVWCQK
Trypsin, sequence (P00761 whole entry): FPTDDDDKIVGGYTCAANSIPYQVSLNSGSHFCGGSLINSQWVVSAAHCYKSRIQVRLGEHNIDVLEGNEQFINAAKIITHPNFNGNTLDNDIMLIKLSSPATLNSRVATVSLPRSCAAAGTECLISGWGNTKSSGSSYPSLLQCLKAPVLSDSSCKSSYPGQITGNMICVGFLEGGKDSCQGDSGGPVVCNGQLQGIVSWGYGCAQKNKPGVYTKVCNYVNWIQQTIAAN

Compound: CC(C)CC(NC(=O)CCCNC(=O)CCC(=O)OC1O[C@H]2OC3(C)CC[C@H]4[C@H](C)CCC(C1C)C24OO3)C(=O)O (some centres not stated)
IC50 [1]: 31.8 µM (not active)
AC50 [2]: > 70 µM (inactive)
AC50 [3]: 5.65 µM (active)
IC50 (Protein Wnt-3a): 304 nM (active)
IC50 [4]: > 85.4 µM (inactive)

Compound: O=C(COc1ccccc1)Nc1cccc(-c2nc3cc4ccccc4cc3[nH]2)c1
EC50 [7]: 7.43 µM (active)
EC50 [8]: 1.64 µM (active)
EC50 [9]: 11.8 µM (active)
EC50 [10]: 12.1 µM (active)
AC50 (Trypsin): 5.74 µM (active)

Compound: Cc1ccc(-n2nnnc2C(Cl)(Cl)c2nnnn2-c2ccc(C)cc2)cc1
IC50 [12]: 4.55 µM (active)
EC50 [8]: > 38 µM (not active)
IC50 (Large T antigen): 11.1 µM (active)
IC50 [13]: 5.57 µM (active)
EC50 [14]: 1.11 µM (active)
EC50 [9]: 9.09 µM (active)
EC50 [15]: 15 µM (active)
EC50 [10]: 9.11 µM (active)
AC50 [16]: 1.27 µM (active)
AC50 [17]: 4.71 µM (active)
AC50 [2]: > 70 µM (inactive)
AC50 [3]: 15.6 µM (active)

Compound: COc1ccccc1NC(=O)COC(=O)c1cc2c(s1)CCC2
IC50 [18]: 19.1 µM (active)
IC50 [19]: 51 µM (active)
AC50 (Caspase-6): 5.53 µM (active)

The next lines start with the values.

IC50 (Bcl-2-like protein 10): > 100 µM (inactive)
Compound: COc1ccc(Nc2cc(C)nc3nc(C)nn23)cc1Cl

IC50 [5]: > 100 µM (inactive)
IC50 [6]: > 100 µM (not active)
IC50 (Beta-galactosidase): > 80 µM (inactive)
Compound: O=C(/C=C/c1ccc(Cl)cc1)N1CCN(c2ccc([N+](=O)[O-])c(N3CCOCC3)c2)CC1

IC50 [5]: > 100 µM (inactive)
IC50 [6]: > 100 µM (not active)
Compound: Cc1c(Br)cccc1NC(=O)c1sccc1-n1cccc1

IC50 [11]: > 50 µM (inconclusive)
Compound: O=C1C(Cl)=C(N2CCN(CCOCCO)CC2)C(=O)N1c1cccc(C(F)(F)F)c1
